The results in this text go back to US12071408B2, “Multi-targeted tyrosine kinase inhibitors effective in antitumor uses” (Shanghai AB PharmaTech Ltd., priority 2021, dated 2024).

Where two headings read alike, the source gives them in different places.

Test [1] has as its system thyroid cancer cell line (TT). As to the kind of experiment: Tumor cell proliferation inhibition (CTG, 72 h). The test is classed as cell-based.
The target in another test is FGFR4 (Homo sapiens (Human), UniProt P22455). In words: Kinase inhibition, Mobility-Shift Assay. The test is classed as biochemical.
Chain of FGFR4 (P22455 22-802): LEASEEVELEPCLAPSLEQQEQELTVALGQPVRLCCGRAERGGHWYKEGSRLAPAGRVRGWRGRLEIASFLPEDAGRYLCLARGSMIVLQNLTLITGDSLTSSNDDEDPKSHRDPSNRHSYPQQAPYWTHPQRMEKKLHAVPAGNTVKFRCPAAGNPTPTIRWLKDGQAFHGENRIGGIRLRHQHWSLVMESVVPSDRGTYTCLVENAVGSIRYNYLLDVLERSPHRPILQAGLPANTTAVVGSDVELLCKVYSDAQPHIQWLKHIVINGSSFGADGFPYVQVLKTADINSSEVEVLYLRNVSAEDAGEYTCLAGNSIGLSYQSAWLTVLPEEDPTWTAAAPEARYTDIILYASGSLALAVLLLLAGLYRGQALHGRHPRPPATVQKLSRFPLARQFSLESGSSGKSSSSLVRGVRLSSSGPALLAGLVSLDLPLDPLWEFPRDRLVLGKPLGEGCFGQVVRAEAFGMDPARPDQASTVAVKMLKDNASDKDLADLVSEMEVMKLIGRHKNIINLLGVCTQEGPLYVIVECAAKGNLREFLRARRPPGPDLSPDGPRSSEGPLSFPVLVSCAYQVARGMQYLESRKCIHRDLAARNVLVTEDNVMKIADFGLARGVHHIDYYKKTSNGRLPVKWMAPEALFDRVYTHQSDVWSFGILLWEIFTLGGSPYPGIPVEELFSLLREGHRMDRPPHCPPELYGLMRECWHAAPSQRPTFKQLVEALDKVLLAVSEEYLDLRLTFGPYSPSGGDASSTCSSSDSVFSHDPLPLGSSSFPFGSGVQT
The next test concerns the target VEGFR-2 (KDR) (Homo sapiens (Human), UniProt P35968). In words: Kinase inhibition, Mobility-Shift Assay. The class given is biochemical.
The target of another test is EGFR (Homo sapiens (Human), UniProt P00533). As to the kind of experiment: Kinase inhibition, Mobility-Shift Assay. The test is classed as biochemical.
For the next test, the target named is hERG potassium channels (Homo sapiens (Human), UniProt Q12809). In words: hERG in vitro inhibition, whole-cell patch clamp. The test is classed as cell-based. The following applies: in vitro hERG current inhibition. On the technique in general: The hERG channel carries a current that helps repolarise heart muscle cells.
Test [2] relates to bladder cancer cell line (RT112/84). In words: Tumor cell proliferation inhibition (CTG, 72 h). The test is classed as cell-based. The following applies: Homo sapiens.
In a further test the target is C-MET (Homo sapiens (Human), UniProt P08581). As to the kind of experiment: Kinase inhibition, Mobility-Shift Assay. The class given is biochemical. The following applies: class; read-out: C-MET range of activity (IC50).
Chain of C-MET (P08581 25-1390): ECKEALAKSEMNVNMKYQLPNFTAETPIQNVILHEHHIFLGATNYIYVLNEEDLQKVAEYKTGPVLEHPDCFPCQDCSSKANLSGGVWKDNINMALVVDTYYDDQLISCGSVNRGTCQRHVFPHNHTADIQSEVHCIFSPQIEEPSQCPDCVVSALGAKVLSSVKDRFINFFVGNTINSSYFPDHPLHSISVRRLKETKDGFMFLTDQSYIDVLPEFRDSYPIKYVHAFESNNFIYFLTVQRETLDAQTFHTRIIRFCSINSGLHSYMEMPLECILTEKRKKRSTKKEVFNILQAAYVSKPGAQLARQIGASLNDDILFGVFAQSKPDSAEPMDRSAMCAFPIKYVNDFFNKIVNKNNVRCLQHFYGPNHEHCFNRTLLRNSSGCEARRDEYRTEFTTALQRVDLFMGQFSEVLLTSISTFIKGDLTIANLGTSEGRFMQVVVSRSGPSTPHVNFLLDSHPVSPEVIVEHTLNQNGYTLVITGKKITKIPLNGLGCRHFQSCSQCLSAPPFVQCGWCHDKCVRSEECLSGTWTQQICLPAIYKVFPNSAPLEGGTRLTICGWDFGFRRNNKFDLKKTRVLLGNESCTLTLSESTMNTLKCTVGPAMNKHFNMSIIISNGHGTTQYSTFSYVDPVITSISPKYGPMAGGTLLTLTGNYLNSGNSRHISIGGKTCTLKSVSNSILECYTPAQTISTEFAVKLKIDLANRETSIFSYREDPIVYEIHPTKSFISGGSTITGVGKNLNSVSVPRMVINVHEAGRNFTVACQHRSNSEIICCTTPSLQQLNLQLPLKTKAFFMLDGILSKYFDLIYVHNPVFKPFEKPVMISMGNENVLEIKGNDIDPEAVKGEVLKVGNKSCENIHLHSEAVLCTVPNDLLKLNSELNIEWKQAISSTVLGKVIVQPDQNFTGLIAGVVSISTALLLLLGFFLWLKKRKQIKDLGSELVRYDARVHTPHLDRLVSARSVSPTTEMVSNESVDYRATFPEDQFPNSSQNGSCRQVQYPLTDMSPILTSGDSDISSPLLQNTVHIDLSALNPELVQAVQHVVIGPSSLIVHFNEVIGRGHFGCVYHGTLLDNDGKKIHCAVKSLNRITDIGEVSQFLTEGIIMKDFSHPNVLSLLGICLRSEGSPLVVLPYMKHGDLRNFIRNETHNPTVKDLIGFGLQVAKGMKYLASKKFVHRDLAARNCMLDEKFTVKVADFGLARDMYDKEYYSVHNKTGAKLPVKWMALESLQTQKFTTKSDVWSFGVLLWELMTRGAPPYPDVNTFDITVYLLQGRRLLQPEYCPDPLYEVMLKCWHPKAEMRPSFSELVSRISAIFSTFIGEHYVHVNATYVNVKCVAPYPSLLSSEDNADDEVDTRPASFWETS
The subject of test [3] is cervical cancer cell line (Hela). In words: Tumor cell proliferation inhibition (CTG, 72 h). The test is classed as cell-based. The conditions noted are these: Homo sapiens; Hela cells, class; read-out: Hela activity effect range (IC50).
The subject of test [4] is leukemia cell line (K562). As to the kind of experiment: Tumor cell proliferation inhibition (CTG, 72 h). The test is classed as cell-based. The following applies: Homo sapiens; K562 cells, class; read-out: K562 activity effect range (IC50).
The subject of test [5] is hepatocellular carcinoma cell line (Hep3B 2.1-7). In words: Tumor cell proliferation inhibition (CTG, 72 h). The test is classed as cell-based. The following applies: Homo sapiens; Hep3B 2.1-7 cells, class; read-out: Hep3B 2.1-7 range of activity (IC50).
Another test deals with FGFR2 (Homo sapiens (Human), UniProt P21802). As to the kind of experiment: Kinase inhibition, Mobility-Shift Assay. The class given is biochemical. The following applies: class; read-out: FGFR2 range of activity effects (IC50).
Chain of FGFR2 (P21802 22-821): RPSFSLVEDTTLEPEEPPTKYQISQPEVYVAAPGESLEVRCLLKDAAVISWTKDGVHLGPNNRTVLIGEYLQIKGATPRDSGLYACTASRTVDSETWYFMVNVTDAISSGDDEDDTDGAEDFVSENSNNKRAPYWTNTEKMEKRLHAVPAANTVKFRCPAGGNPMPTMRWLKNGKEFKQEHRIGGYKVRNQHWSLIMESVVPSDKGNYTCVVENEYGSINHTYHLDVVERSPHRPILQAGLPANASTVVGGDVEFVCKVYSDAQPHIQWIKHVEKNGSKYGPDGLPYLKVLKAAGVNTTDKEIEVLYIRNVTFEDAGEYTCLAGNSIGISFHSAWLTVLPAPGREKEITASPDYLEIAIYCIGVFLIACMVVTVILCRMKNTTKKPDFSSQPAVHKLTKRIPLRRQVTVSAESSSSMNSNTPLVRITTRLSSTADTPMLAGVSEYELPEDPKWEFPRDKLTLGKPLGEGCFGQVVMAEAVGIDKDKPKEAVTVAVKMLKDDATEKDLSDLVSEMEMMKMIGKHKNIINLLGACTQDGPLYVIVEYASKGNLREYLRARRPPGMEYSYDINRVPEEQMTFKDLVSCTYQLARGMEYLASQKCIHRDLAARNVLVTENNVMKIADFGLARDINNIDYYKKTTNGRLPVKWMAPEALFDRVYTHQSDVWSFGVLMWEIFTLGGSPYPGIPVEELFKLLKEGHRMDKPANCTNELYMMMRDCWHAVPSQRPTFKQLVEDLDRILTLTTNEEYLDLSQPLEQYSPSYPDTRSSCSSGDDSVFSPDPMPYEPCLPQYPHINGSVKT
[6] abbreviates: Homo sapiens, TT cells, class, read-out: TT range of activity (IC50).
Where [7] appears, read: class, read-out: FGFR4 range of activity effects (IC50).
Where [8] appears, read: class, read-out: KDR activity effect range (IC50).
[9] abbreviates: class, read-out: EGFR range of activity (IC50).
Where [10] appears, read: RT112/84 cells, class, read-out: RT112/84 range of activity (IC50).

Chain of VEGFR-2 (KDR) (P35968 20-1356): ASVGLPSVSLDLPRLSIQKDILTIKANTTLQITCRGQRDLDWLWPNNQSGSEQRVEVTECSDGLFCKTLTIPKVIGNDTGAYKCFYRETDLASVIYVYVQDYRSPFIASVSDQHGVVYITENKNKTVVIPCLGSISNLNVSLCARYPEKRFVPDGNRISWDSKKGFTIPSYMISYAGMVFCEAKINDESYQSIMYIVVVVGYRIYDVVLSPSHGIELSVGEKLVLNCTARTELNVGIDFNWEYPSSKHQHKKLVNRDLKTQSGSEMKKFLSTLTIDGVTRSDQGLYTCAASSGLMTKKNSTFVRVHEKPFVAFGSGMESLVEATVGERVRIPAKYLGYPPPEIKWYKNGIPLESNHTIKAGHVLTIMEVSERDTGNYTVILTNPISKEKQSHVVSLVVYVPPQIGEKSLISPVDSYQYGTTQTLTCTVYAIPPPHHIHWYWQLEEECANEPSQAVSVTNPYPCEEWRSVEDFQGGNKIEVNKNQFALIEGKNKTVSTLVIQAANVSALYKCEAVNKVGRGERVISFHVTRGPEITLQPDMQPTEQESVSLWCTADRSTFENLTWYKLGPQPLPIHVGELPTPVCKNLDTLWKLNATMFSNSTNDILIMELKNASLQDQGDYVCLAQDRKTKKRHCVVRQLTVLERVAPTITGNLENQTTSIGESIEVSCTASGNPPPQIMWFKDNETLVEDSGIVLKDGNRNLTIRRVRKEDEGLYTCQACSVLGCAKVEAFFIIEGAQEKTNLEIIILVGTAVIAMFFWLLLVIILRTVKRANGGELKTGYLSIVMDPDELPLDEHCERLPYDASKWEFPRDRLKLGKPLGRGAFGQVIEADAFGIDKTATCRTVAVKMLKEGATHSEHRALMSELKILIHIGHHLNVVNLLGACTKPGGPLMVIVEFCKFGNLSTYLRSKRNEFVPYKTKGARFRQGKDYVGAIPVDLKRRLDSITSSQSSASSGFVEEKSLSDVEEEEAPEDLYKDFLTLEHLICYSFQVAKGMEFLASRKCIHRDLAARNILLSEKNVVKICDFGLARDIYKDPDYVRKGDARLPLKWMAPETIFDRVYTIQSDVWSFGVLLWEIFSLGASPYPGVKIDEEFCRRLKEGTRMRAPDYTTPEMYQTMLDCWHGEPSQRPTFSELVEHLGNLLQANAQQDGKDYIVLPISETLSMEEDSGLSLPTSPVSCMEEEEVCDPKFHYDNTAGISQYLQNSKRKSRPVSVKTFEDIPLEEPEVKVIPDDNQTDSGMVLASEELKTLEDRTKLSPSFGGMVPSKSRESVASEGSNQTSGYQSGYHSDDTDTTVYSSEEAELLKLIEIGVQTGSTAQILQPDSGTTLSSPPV

`COc1cc2nccc(Oc3ccc(NC(=O)NC4CC4)c(Cl)c3F)c2cc1C(N)=O` [Ref-2, reference compound]: the IC50 is 6.4 µM in test [1] (TT thyroid cancer cells, 72 h, read-out: TT (uM), inhibitory activity IC50); 39 nM at FGFR4 (read-out: FGFR-4 IC50); 8.6 nM on VEGFR-2 (KDR) (read-out: VEGFR-2 (KDR) IC50); above 1000 nM at EGFR (read-out: EGFR IC50); 15.4 µM on hERG potassium channels; 0.42 µM in [2] (RT112/84 bladder cancer cells, 72 h, read-out: RT112/84 (uM), inhibitory activity IC50).
For `COc1cc2nccc(Oc3c(F)cc(NC(=O)NC4COC4)c(Cl)c3F)c2cc1C(N)=O` [III-27], the IC50 is above 100 nM on C-MET; above 10 µM in test [1] (setting [6]); above 10 µM in test [3]; above 10 µM in test [4]; above 100 nM on FGFR4 (setting [7]); above 10 nM on VEGFR-2 (KDR) (setting [8]). Moreover, the IC50 at EGFR (setting [9]) was above 100 nM; in test [5] it was above 5 µM; at FGFR2 it was above 100 nM; in [2] (setting [10]), above 1 µM.
As for `COc1cc2nccc(Oc3c(F)cc(NC(=O)NC[C@@H](C)O)c(Cl)c3F)c2cc1C(N)=O` [III-10], the IC50 at C-MET was above 100 nM; in [1] (setting [6]) it was above 10 µM; in [3] it was above 10 µM; in test [4] it was above 10 µM; on FGFR4 (setting [7]) it was above 100 nM; on VEGFR-2 (KDR) (setting [8]) it was above 10 nM. The IC50 was above 100 nM on EGFR (setting [9]), above 5 µM in test [5], above 100 nM on FGFR2 and above 1 µM in [2] (setting [10]).
As to `COc1cc2nccc(Oc3c(Cl)cc(NC(=O)NC4CC4)c(Cl)c3F)c2cc1C(N)=O` [III-19], the IC50 on C-MET was above 100 nM; in [1] (setting [6]) it was above 10 µM; in [3], above 10 µM; in test [4] it was above 10 µM; on FGFR4 (setting [7]) it was above 100 nM; at VEGFR-2 (KDR) (setting [8]), above 10 nM. For the same compound, the IC50 on EGFR (setting [9]) was above 100 nM; in [5] it was above 5 µM; at FGFR2, above 100 nM; in test [2] (setting [10]), above 1 µM.
With `COc1cc2nccc(Oc3c(F)cc(NC(=O)NC4CC4)c(Cl)c3N(C)C3CC3)c2cc1C(N)=O` [III-48], the IC50 at C-MET is above 100 nM; in test [1] (setting [6]) it was above 10 µM; in test [3], above 10 µM; in test [4] it was above 10 µM; on FGFR4 (setting [7]) it was above 100 nM; at VEGFR-2 (KDR) (setting [8]) it was above 10 nM. The IC50 at EGFR (setting [9]) is above 100 nM; in [5] it was above 5 µM; on FGFR2, above 100 nM; in [2] (setting [10]), above 1 µM.
For `COc1cc2nccc(Oc3c(F)cc(NC(=O)NC[C@@H](O)CO)c(Cl)c3F)c2cc1C(N)=O` [III-15], the IC50 at C-MET was above 100 nM; in test [1] (setting [6]), above 10 µM; in [3] it was above 10 µM; in test [4], above 10 µM; at FGFR4 (setting [7]), above 100 nM; on VEGFR-2 (KDR) (setting [8]) it was above 10 nM. The IC50 on EGFR (setting [9]) is above 100 nM; in [5], above 5 µM; at FGFR2 it was above 100 nM; in test [2] (setting [10]) it was above 1 µM.
As to `COc1cc2nccc(Oc3c(F)cc(NC(=O)N[C@H](C)CO)c(Cl)c3F)c2cc1C(N)=O` [III-08], the IC50 is above 100 nM at C-MET; above 10 µM in test [1] (setting [6]); above 10 µM in test [3]; above 10 µM in [4]; above 100 nM on FGFR4 (setting [7]); above 10 nM at VEGFR-2 (KDR) (setting [8]). For the same compound, the IC50 on EGFR (setting [9]) was above 100 nM; in [5], above 5 µM; at FGFR2, above 100 nM; in test [2] (setting [10]), above 1 µM.
Take `COc1cc2nccc(Oc3c(F)cc(NC(=O)NC(C)(C)CO)c(Cl)c3F)c2cc1C(N)=O` [III-11]: the IC50 at C-MET was above 100 nM; in [1] (setting [6]), above 10 µM; in test [3], above 10 µM; in test [4], above 10 µM; on FGFR4 (setting [7]) it was above 100 nM; at VEGFR-2 (KDR) (setting [8]), above 10 nM. In addition, the IC50 on EGFR (setting [9]) was above 100 nM; in test [5], above 5 µM; on FGFR2, above 100 nM; in test [2] (setting [10]), above 1 µM.
In the case of `COc1cc2nccc(Oc3c(F)cc(NC(=O)NC4(C)CC4)c(F)c3F)c2cc1C(N)=O` [III-21], the IC50 at C-MET is above 100 nM; in test [1] (setting [6]), above 10 µM; in test [3], above 10 µM; in [4] it was above 10 µM; on FGFR4 (setting [7]), above 100 nM; on VEGFR-2 (KDR) (setting [8]), above 10 nM. For the same compound, the IC50 on EGFR (setting [9]) was above 100 nM; in test [5], above 5 µM; at FGFR2, above 100 nM; in test [2] (setting [10]), above 1 µM.
Turning to `COc1cc2nccc(Oc3c(F)cc(NC(=O)NC(C)C(F)(F)F)c(Cl)c3F)c2cc1C(N)=O` (stereo not shown) [III-38], the IC50 is above 100 nM at C-MET; above 10 µM in test [1] (setting [6]); above 10 µM in [3]; above 10 µM in test [4]; above 100 nM on FGFR4 (setting [7]); above 10 nM on VEGFR-2 (KDR) (setting [8]). The IC50 at EGFR (setting [9]) was above 100 nM; in test [5], above 5 µM; on FGFR2, above 100 nM; in test [2] (setting [10]), above 1 µM.
As for `COc1cc2nccc(Oc3c(Cl)cc(NC(=O)NC4CC4)c(Br)c3F)c2cc1C(N)=O` [III-20], the IC50 on C-MET was above 100 nM; in [1] (setting [6]), above 10 µM; in test [3], above 10 µM; in test [4], above 10 µM; at FGFR4 (setting [7]), above 100 nM; on VEGFR-2 (KDR) (setting [8]) it was above 10 nM. The IC50 was above 100 nM on EGFR (setting [9]), above 5 µM in test [5], above 100 nM on FGFR2 and above 1 µM in [2] (setting [10]).
